Measurements as given in patent US10072001B2, “Tank-binding kinase inhibitor compounds” (Gilead Sciences, Inc., priority 2014, dated 2018).
One block for each compound: values may come before it.

Assays:
[1] = biological target: TBK1 (Homo sapiens (Human), UniProt Q9UHD2); experiment: TR-FRET kinase assay, TBK1; details: read-out: TBK1-IC50; full length recombinant TBK1 2.5 nM, 2x Km ATP, 1 μM peptide, 240 min at 25° C.; geometric mean of minimum four determinations
TBK1, sequence (Q9UHD2 whole entry): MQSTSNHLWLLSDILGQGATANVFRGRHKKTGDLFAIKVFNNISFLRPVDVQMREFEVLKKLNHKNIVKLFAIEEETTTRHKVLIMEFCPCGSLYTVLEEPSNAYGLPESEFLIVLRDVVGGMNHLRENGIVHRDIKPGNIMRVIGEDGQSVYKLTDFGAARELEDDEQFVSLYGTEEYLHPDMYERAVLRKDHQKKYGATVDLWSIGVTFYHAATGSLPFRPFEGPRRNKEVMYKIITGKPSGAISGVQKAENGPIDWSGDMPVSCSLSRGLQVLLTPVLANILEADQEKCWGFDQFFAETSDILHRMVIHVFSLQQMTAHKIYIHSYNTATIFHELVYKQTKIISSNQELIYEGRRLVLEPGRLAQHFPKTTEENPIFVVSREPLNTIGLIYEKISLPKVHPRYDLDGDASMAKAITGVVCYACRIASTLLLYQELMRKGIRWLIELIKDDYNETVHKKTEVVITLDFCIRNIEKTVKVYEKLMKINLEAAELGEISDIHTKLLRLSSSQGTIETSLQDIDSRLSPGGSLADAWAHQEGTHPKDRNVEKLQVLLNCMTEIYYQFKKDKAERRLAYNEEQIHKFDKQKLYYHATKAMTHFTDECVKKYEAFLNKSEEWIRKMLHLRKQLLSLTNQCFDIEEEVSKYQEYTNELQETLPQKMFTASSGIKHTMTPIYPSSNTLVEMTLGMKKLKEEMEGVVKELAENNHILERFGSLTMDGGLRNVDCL

[2] = biological target: IKKε (Homo sapiens (Human), UniProt Q14164); experiment: TR-FRET kinase assay, IKKε; type: biochemical; details: full length recombinant IKKε 0.3 nM, 2x Km ATP, 1 μM peptide, 240 min at 25° C.; geometric mean of minimum four determinations
IKKε, sequence (Q14164 whole entry): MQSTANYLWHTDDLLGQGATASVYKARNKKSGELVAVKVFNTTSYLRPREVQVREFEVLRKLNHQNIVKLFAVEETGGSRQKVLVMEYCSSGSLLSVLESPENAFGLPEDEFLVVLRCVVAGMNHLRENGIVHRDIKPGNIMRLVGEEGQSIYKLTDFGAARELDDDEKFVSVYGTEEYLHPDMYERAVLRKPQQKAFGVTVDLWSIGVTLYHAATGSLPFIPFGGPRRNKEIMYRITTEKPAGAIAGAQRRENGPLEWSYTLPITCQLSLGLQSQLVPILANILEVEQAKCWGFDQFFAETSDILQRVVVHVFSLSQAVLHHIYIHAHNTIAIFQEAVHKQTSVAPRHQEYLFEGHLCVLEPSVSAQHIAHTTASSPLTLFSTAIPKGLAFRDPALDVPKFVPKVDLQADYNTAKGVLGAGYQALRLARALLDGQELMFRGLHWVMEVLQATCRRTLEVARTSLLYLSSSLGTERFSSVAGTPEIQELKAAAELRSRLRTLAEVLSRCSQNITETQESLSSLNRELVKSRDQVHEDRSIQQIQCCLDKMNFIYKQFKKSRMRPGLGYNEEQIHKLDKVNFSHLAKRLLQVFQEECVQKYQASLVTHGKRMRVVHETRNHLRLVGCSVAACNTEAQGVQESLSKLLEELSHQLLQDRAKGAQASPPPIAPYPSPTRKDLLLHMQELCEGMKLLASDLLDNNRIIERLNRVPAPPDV
Description: Biological Assay for TBK1 and IKKs:

IC50 [1]: 51.1 nM
IC50 [2]: 195 nM
SMILES: CC(=O)N1CC(Oc2ccc(-c3ccnc4[nH]c(-c5ccc(N6CCOCC6)cc5)cc34)cc2C#N)C1 [Example 153, 2-((1-acetylazetidin-3-yl)oxy)-5-(2-(4-morpholinophenyl)-1H-pyrrolo[2,3-b]pyridin-4-yl)benzonitrile]

IC50 [1]: 1.68 nM
IC50 [2]: 7.58 nM
SMILES: N#Cc1cc(-c2ncnc3[nH]c(-c4ccc(N5CCOCC5)cc4)nc23)ccc1O[C@@H]1CCN(C(=O)CO)C1 [Example 208, (R)-2-((1-(2-hydroxyacetyl)pyrrolidin-3-yl)oxy)-5-(8-(4-morpholinophenyl)-9H-purin-6-yl)benzonitrile]

IC50 [1]: > 1000 nM
IC50 [2]: > 1000 nM
SMILES: CC(C)(C)OC(=O)N1CCC(Oc2ccc(-c3ncnc4[nH]c(-c5ccc(N6CCOCC6)cc5)nc34)cc2C#N)CC1 [Example 203, tert-butyl 4-(2-cyano-4-(8-(4-morpholinophenyl)-9H-purin-6-yl)phenoxy)piperidine-1-carboxylate]

IC50 [1]: 4.22 nM
IC50 [2]: 2.69 nM
SMILES: CN1CCN(c2ccc(-c3nc4c(-c5ccc(OC6CCN(C=O)CC6)c(C#N)c5)ncnc4[nH]3)cc2)CC1 [Example 254, 2-((1-formylpiperidin-4-yl)oxy)-5-(8-(4-(4-methylpiperazin-1-yl)phenyl)-9H-purin-6-yl)benzonitrile]

IC50 [1]: 18.9 nM
IC50 [2]: 34.7 nM
SMILES: N#Cc1cc(-c2ncnc3[nH]c(-c4ccc(=O)[nH]c4)cc23)ccc1OC1CCOCC1 [Example 183, 5-(6-(6-oxo-1,6-dihydropyridin-3-yl)-7H-pyrrolo[2,3-d]pyrimidin-4-yl)-2-((tetrahydro-2H-pyran-4-yl)oxy)benzonitrile]

IC50 [1]: 184 nM
IC50 [2]: 205 nM
SMILES: N#Cc1cc(-c2ccnc3[nH]c(C#CCO)cc23)ccc1OC1CCOCC1 [Example 148, 5-(2-(3-hydroxyprop-1-yn-1-yl)-1H-pyrrolo[2,3-b]pyridin-4-yl)-2-((tetrahydro-2H-pyran-4-yl)oxy)benzonitrile]

IC50 [1]: 2.17 nM
IC50 [2]: 5.09 nM
SMILES: COC(=O)c1ccc(-c2cc3c(-c4ccc(OC5CCN(C(=O)CO)CC5)c(C#N)c4)ncnc3[nH]2)cc1 [Example 159, Methyl 4-(4-(3-cyano-4-((1-(2-hydroxyacetyl)piperidin-4-yl)oxy)phenyl)-7H-pyrrolo[2,3-d]pyrimidin-6-yl)benzoate]

IC50 [1]: 19.6 nM
IC50 [2]: 85 nM
SMILES: N#Cc1cc(-c2ncnc3[nH]c(-c4ccc(N5CCOCC5)cc4)cc23)ccc1CN1CCOCC1 [Example 112, 2-(morpholinomethyl)-5-(6-(4-morpholinophenyl)-7H-pyrrolo[2,3-d]pyrimidin-4-yl)benzonitrile]

IC50 [1]: 13.1 nM
IC50 [2]: 58.7 nM
SMILES: C[C@@H](O)C(=O)N1CC[C@@H](Oc2ccc(-c3ncnc4[nH]c(-c5ccc(N6CCOCC6)cc5)nc34)cc2C#N)C1 [Example 209, 2-(((R)-1-((R)-2-hydroxypropanoyl)pyrrolidin-3-yl)oxy)-5-(8-(4-morpholinophenyl)-9H-purin-6-yl)benzonitrile]

IC50 [1]: 59.3 nM
IC50 [2]: 358 nM
SMILES: CC(C)Oc1ccc(-c2ccnc3[nH]c(-c4ccc(N5CCOCC5)cc4)cc23)cc1C#N [Example 71, 2-isopropoxy-5-(2-(4-morpholinophenyl)-1H-pyrrolo[2,3-b]pyridin-4-yl)benzonitrile]

IC50 [1]: 0.87 nM
IC50 [2]: 5.54 nM
SMILES: N#Cc1cc(-c2ncnc3[nH]c(-c4ccc(N5CCN(C6COC6)CC5)cc4)cc23)ccc1OC1CCOCC1 [Example 105, 5-(6-(4-(4-(oxetan-3-yl)piperazin-1-yl)phenyl)-7H-pyrrolo[2,3-d]pyrimidin-4-yl)-2-((tetrahydro-2H-pyran-4-yl)oxy)benzonitrile]

IC50 [1]: 43.5 nM
IC50 [2]: > 1000 nM
SMILES: N#Cc1cc(-c2ccnc3[nH]c(-c4ccc(N5CCOCC5)cc4)nc23)ccc1OCC1CC1 [Example 301, 2-(cyclopropylmethoxy)-5-(2-(4-morpholinophenyl)-3H-imidazo[4,5-b]pyridin-7-yl)benzonitrile]

IC50 [1]: 15.6 nM
IC50 [2]: 3.33 nM
SMILES: N#Cc1cc(-c2ccnc3[nH]c(-c4ccc(N5CCOCC5)cc4)cc23)ccc1N1CC(O)C1 [Example 52, 2-(3-hydroxyazetidin-1-yl)-5-(2-(4-morpholinophenyl)-1H-pyrrolo[2,3-b]pyridin-4-yl)benzonitrile]

The remaining lines, values behind:

SMILES: CN1CCN(c2ccc(-c3nc4c(-c5ccc(OC6CCOCC6)c(C#N)c5)ncnc4[nH]3)cc2)CC1 [Example 212, 5-(8-(4-(4-methylpiperazin-1-yl)phenyl)-9H-purin-6-yl)-2-((tetrahydro-2H-pyran-4-yl)oxy)benzonitrile]
IC50 [1]: 1.14 nM
IC50 [2]: 1.08 nM

SMILES: N#Cc1cc(-c2ncnc3[nH]c(-c4ccc(Cl)cc4)cc23)ccc1OC1CCN(C(=O)CO)CC1 [Example 127, 5-(6-(4-chlorophenyl)-7H-pyrrolo[2,3-d]pyrimidin-4-yl)-2-((1-(2-hydroxyacetyl)piperidin-4-yl)oxy)benzonitrile]
IC50 [1]: 4.64 nM
IC50 [2]: 9.58 nM

SMILES: COc1ccc(-c2cc3c(-c4ccc(OC5CCNCC5)c(C#N)c4)ncnc3[nH]2)cc1 [Example 123, 5-(6-(4-methoxyphenyl)-7H-pyrrolo[2,3-d]pyrimidin-4-yl)-2-(piperidin-4-yloxy)benzonitrile]
IC50 [1]: 22.4 nM
IC50 [2]: 65.8 nM

SMILES: N#Cc1cc(-c2ccnc3[nH]c(-c4ccc(N5CCOCC5)cc4)cc23)ccc1OC1CCN(C(=O)CN)CC1 [Example 152, 2-((1-(2-aminoacetyl)piperidin-4-yl)oxy)-5-(2-(4-morpholinophenyl)-1H-pyrrolo[2,3-b]pyridin-4-yl)benzonitrile]
IC50 [1]: 5.96 nM
IC50 [2]: 18.4 nM

SMILES: CC1CN(c2ccc(-c3nc4c(-c5ccc(OC6CCN(C(=O)CO)CC6)c(C#N)c5)ncnc4[nH]3)cc2)CCN1CCF (stereo not drawn) [Example 256, 5-(8-(4-(4-(2-fluoroethyl)-3-methylpiperazin-1-yl)phenyl)-9H-purin-6-yl)-2-((1-(2-hydroxyacetyl)piperidin-4-yl)oxy)benzonitrile]
IC50 [1]: 2.4 nM
IC50 [2]: 1.79 nM

SMILES: N#Cc1cc(-c2ccnc3[nH]c(C4=CC5CCC4C5)cc23)ccc1OC1CCOCC1 (stereo not drawn) [Example 43, 5-(2-(bicyclo[2.2.1]hept-2-en-2-yl)-1H-pyrrolo[2,3-b]pyridin-4-yl)-2-((tetrahydro-2H-pyran-4-yl)oxy)benzonitrile]
IC50 [1]: 434 nM
IC50 [2]: > 1000 nM

SMILES: N#Cc1cc(-c2ccnc3[nH]c(-c4ccc(N5CCOCC5)cc4)cc23)ccc1CN1CCOCC1 [Example 70, 2-(morpholinomethyl)-5-(2-(4-morpholinophenyl)-1H-pyrrolo[2,3-b]pyridin-4-yl)benzonitrile]
IC50 [1]: 10.5 nM
IC50 [2]: 132 nM

SMILES: N#Cc1cc(-c2ccnc3[nH]c(C4=CCC5(CC4)OCCO5)cc23)ccc1OC1CCOCC1 [Example 180, 5-(2-(1,4-dioxaspiro[4.5]dec-7-en-8-yl)-1H-pyrrolo[2,3-b]pyridin-4-yl)-2-((tetrahydro-2H-pyran-4-yl)oxy)benzonitrile]
IC50 [1]: 3.1 nM
IC50 [2]: 20.7 nM

SMILES: N#Cc1cc(-c2ccnc3[nH]c(-c4ccc(N5CCOCC5)cc4)cc23)ccc1OC1CCCOC1 (stereo not drawn) [Example 239, 5-(2-(4-morpholinophenyl)-1H-pyrrolo[2,3-b]pyridin-4-yl)-2-((tetrahydro-2H-pyran-3-yl)oxy)benzonitrile]
IC50 [1]: 44.7 nM
IC50 [2]: 193 nM

SMILES: N#Cc1cc(-c2ccnc3[nH]c(-c4ccc(N5CCOCC5)cc4)nc23)ccc1OC1CCN(C(=O)CO)CC1 [Example 198, 2-((1-(2-hydroxyacetyl)piperidin-4-yl)oxy)-5-(2-(4-morpholinophenyl)-3H-imidazo[4,5-b]pyridin-7-yl)benzonitrile]
IC50 [1]: 2.3 nM
IC50 [2]: 3.42 nM

SMILES: N#Cc1cc(-c2ncnc3[nH]c(-c4ccc(N5CCOCC5)cc4)cc23)ccc1OC1CCOCC1 [Example 101, 5-(6-(4-morpholinophenyl)-7H-pyrrolo[2,3-d]pyrimidin-4-yl)-2-((tetrahydro-2H-pyran-4-yl)oxy)benzonitrile]
IC50 [1]: 1.72 nM
IC50 [2]: 8.06 nM

SMILES: Cn1cc(-c2cc3c(-c4ccc(OC5CCOCC5)c(C#N)c4)ccnc3[nH]2)cn1 [Example 84, 5-(2-(1-methyl-1H-pyrazol-4-yl)-1H-pyrrolo[2,3-b]pyridin-4-yl)-2-((tetrahydro-2H-pyran-4-yl)oxy)benzonitrile]
IC50 [1]: 3.68 nM
IC50 [2]: 4.71 nM

SMILES: Cc1cc(N2CCOCC2)ccc1-c1cc2c(-c3ccc(OC4CCN(C(=O)CO)CC4)c(C#N)c3)ncnc2[nH]1 [Example 121, 2-((1-(2-hydroxyacetyl)piperidin-4-yl)oxy)-5-(6-(2-methyl-4-morpholinophenyl)-7H-pyrrolo[2,3-d]pyrimidin-4-yl)benzonitrile]
IC50 [1]: 1.28 nM
IC50 [2]: 4.4 nM

SMILES: COc1ccc(-c2nc3c(-c4ccc(OC5CCOCC5)c(C#N)c4)ncnc3[nH]2)cc1 [Example 146, 5-(8-(4-methoxyphenyl)-9H-purin-6-yl)-2-((tetrahydro-2H-pyran-4-yl)oxy)benzonitrile]
IC50 [1]: 4.71 nM
IC50 [2]: 23.4 nM

SMILES: N#Cc1cc(-c2ncnc3[nH]c(-c4ccc(N5CCOCC5)c(F)c4)cc23)ccc1OC1CCN(C(=O)CO)CC1 [Example 158, 5-(6-(3-fluoro-4-morpholinophenyl)-7H-pyrrolo[2,3-d]pyrimidin-4-yl)-2-((1-(2-hydroxyacetyl)piperidin-4-yl)oxy)benzonitrile]
IC50 [1]: 1.02 nM
IC50 [2]: 2.39 nM

SMILES: Cn1cc(-c2nc3c(-c4ccc(OC5CCOCC5)c(C#N)c4)ccnc3[nH]2)cn1 [Example 307, 5-(2-(1-methyl-1H-pyrazol-4-yl)-3H-imidazo[4,5-b]pyridin-7-yl)-2-((tetrahydro-2H-pyran-4-yl)oxy)benzonitrile]
IC50 [1]: 44.2 nM
IC50 [2]: 21.3 nM

SMILES: Cn1cc(-c2cc3c(-c4ccc(OC5CCOCC5)c(C#N)c4)ncnc3[nH]2)cn1 [Example 104, 5-(6-(1-methyl-1H-pyrazol-4-yl)-7H-pyrrolo[2,3-d]pyrimidin-4-yl)-2-((tetrahydro-2H-pyran-4-yl)oxy)benzonitrile]
IC50 [1]: 3.81 nM
IC50 [2]: 8.18 nM
